Values after ≈ are worked out from the molar mass of the structure shown. Like-named read-outs stand apart in the source and are kept apart here.
Assay: Solubility of the crystalline forms in methylcyclohexane (Mullin method)
Assay type: physicochemical
Conditions: for solubility: methylcyclohexane, organic solvent or mixture, thermodynamic from solid, read-out: Solubility Concentration; for solubility / Solubility Concentration: at equilibrium; for Thermodynamic stability compared with form I: inferred from the lower solubility in methylcyclohexane, 10 °C to 70 °C
Protocol: The solubility of the 2 crystalline forms of rimonabant in the same solvent was also measured. The method used is described in Measurement of Solubility in J. W. Mullin. Crystallization: 3rd edition, Ipswich (GB): Butterworth-Heinemann, 1993, p. 105.
The measurements were carried out for each of the crystalline forms, in solution in methylcyclohexane at temperatures varying from 10° C. to 70° C. At equilibrium, for each temperature, the undissolved crystalline form is characterized by infrared spectrography, in particular by its main bands.

SMILES	solubility (10 °C, in methylcyclohexane, 10.00 °C) [mg/mL]	solubility (20 °C, in methylcyclohexane, 20.00 °C) [mg/mL]	solubility (30 °C, in methylcyclohexane, 30.00 °C) [mg/mL]	solubility (40 °C, in methylcyclohexane, 40.00 °C) [mg/mL]	solubility (50 °C, in methylcyclohexane, 50.00 °C) [mg/mL]	solubility (60 °C, in methylcyclohexane, 60.00 °C) [mg/mL]	solubility (70 °C, in methylcyclohexane, 70.00 °C) [mg/mL]	Solubility Concentration (in methylcyclohexane, 10.00 °C) [mg/mL]	Solubility Concentration (in methylcyclohexane, 20.00 °C) [mg/mL]	Solubility Concentration (in methylcyclohexane, 30.00 °C) [mg/mL]	Solubility Concentration (in methylcyclohexane, 40.00 °C) [mg/mL]	Solubility Concentration (in methylcyclohexane, 50.00 °C) [mg/mL]	Solubility Concentration (in methylcyclohexane, 60.00 °C) [mg/mL]	Solubility Concentration (in methylcyclohexane, 70.00 °C) [mg/mL]	Solubility compared with form I (in methylcyclohexane, all temperatures between 10 °C and 70 °C)	Thermodynamic stability compared with form I (listed as crystalline form II of rimonabant)	Thermodynamic stability compared with form I (listed as rimonabant form II)
Cc1c(C(=O)NN2CCCCC2)nn(-c2ccc(Cl)cc2Cl)c1-c1ccc(Cl)cc1 [Form I, N-Piperidino-5-(4-chlorophenyl)-1-(2,4-dichlorophenyl)-4-methyl-3-pyrazolecarboxamide, reference compound]	4.86 (≈ 10.5 mM)	6.92 (≈ 14.9 mM)	9.3 (≈ 20.1 mM)	13.7 (≈ 29.5 mM)	20.4 (≈ 44 mM)	31.2 (≈ 67.3 mM)	52.4 (≈ 113 mM)										
Cc1c(C(=O)NN2CCCCC2)nn(-c2ccc(Cl)cc2Cl)c1-c1ccc(Cl)cc1 [Form II, N-piperidino-5-(4-chlorophenyl)-1-(2,4-dichlorophenyl)-4-methyl-3-pyrazolecarboxamide]								4.50 (≈ 9.7 mM)	6.60 (≈ 14.2 mM)	9.20 (≈ 19.8 mM)	12.60 (≈ 27.2 mM)	19.00 (≈ 41 mM)	29.20 (≈ 63 mM)	42.00 (≈ 90.6 mM)	less soluble	stability greater than that of form I	thermodynamically more stable than rimonabant form I
